Source: patent US20220133722A1, “PHARMACEUTICAL COMPOSITIONS” (QUE ONCOLOGY PTY LTD, priority 2019, published 2022)
Values joined by “and” are separate entries in the source; they are usually repeats but may differ in a detail not shown here. Equal entries are not always repeated. Where two headings read alike, the source gives them in different places.

Assay: Part 2 PK study: 200 mg QD versus 100 mg BID for 10 days under fed conditions
Format: in vivo, human
Details: fed; for AUC: read-out: AUC0-tau; for Tmax: read-out: Tmax; for half-life: read-out: t½ (converted); for concentration at 10 day: read-out: Cmin; for Vd/F: read-out: Vz/F
Experimental: Part 2 involved analysing the PK parameters obtained following either single (QD) or twice daily (BD) dosing of a compound of formula (Ia) under fed conditions.
Subjects were randomized 1:1 to receive a daily dose of 200 mg administered once daily in the morning (200 mg capsule) or twice daily (100 mg capsules BID) for a total of 10 days. PK blood samples were taken on Day 1 pre-dose and at 0.25, 0.5, 1.0, 1.5, 2, 3, 4, 8, 10, 12 and 16 hours post-dose. On Days 2 to 10, PK blood samples were taken once pre-dose, and on Days 11 to 14, at 24, 36, 48, 60, 72 and 96 hours post-dose.
Subjects selected for participation checked into the clinical unit and were randomized to the dosing regimen receiving their first dose of study drug on the morning of Day 1 followed by PK and safety assessments through the morning of Day 2 (24 hours post-dose). Subjects on a BID regimen received their second dose of study drug approximately 12 hours after the first dose. Subjects remained confined in the clinic for dosing BID or QD through the last dose of study drug on the morning of Day 10. PK samples were collected through 96 hrs post-dose. Subjects were discharged from the clinic following collection of the 72 hr PK sample, returning to the clinic on the morning of Day 14 for the 96 hr sample collection.
For both Parts 1 and 2, samples were processed and analysed as follows. The method extracted Q-122 and the Internal Standard (IS, Q-122 ^13C4) from human plasma using protein precipitation extraction.
The analytes were separated by HPLC on a Phenomenex Synergi Polar-RP column, and the eluates monitored by an API4000 MS/MS detector in positive MRM mode. The extract was then assayed against a calibration curve. The data were acquired and processed by the data acquisition system Analyst® (Sciex) linked directly to the API4000 MS/MS detector and then processed in Watson LIMS™ (Thermo Scientific), where applicable. The method range is from 10.0 to 2500 ng/mL using 50 μL of matrix and has a run time of approximately 3.2 minutes per sample.
Plasma PK parameters for each dosing regimen and dose level were calculated from the concentrations of Q-122 and its major metabolites measured in pre-dose and post-dose plasma samples. For each dose level, descriptive statistics (sample size, arithmetic means, geometric means, standard deviation, % coefficient of variation, minimum, median, and maximum) are presented.
The pharmacokinetic results were processed according to standard non-compartmental analytical procedures. The software used was Phoenix™ WinNonlin® v 6.4 (Pharsight Corporation, USA) and Microsoft® Excel® 2010 (Microsoft Corporation). The following PK parameters were estimated from plasma data.

[1] = 200 mg QD, Day 10, individual subjects
[2] = human, plasma, oral, 100 mg, 100 mg BID, Day 1, individual subjects
[3] = human, plasma, oral, 100 mg, 100 mg BID, Day 1, mean
[4] = human, plasma, oral, 100 mg, 100 mg BID, Day 1, median
[5] = human, plasma, oral, 100 mg, 100 mg BID, Day 10, individual subjects
[6] = human, plasma, oral, 100 mg, 100 mg BID, Day 10, mean
[7] = human, plasma, oral, 100 mg, 100 mg BID, Day 10, median
[8] = human, plasma, oral, 200 mg, 200 mg QD, Day 1, mean
[9] = human, plasma, oral, 200 mg, 200 mg QD, Day 1, median
[10] = human, plasma, oral, 200 mg, 200 mg QD, Day 10, mean
[11] = human, plasma, oral, 200 mg, 200 mg QD, Day 10, median

- % AUCexp (200 mg QD, Day 10, max): 10.70%
- AUC0-last (200 mg QD, Day 10, max): 14024 ng·h/mL
- AUC0-tau (200 mg QD, Day 10, max): 11036 ng·h/mL
- AUCinf (200 mg QD, Day 10, max): 15111 ng·h/mL
- Accum Index (200 mg QD, Day 10, max): 2.88
- CLss/F (200 mg QD, Day 10, max): 63.82 L/h
- Cavg (200 mg QD, Day 10, max): 459.84 ng/mL
- Cmax (200 mg QD, Day 10, max): 1730.00 ng/mL
- Cmin (200 mg QD, Day 10, max): 93.90 ng/mL
- Fluct (200 mg QD, Day 10, max): 401.43%
- Tlast (200 mg QD, Day 10, max): 96.00 h
- t½ (200 mg QD, Day 10, max): 39.04 h
- % AUCexp (200 mg QD, Day 10, mean): 4.612%
- CLss/F (200 mg QD, Day 10, mean): 27.396 L/h
- Cavg (200 mg QD, Day 10, mean): 368.913 ng/mL
- Cmin (200 mg QD, Day 10, mean): 73.267 ng/mL
- Fluct (200 mg QD, Day 10, mean): 305.929%
- Tlast (200 mg QD, Day 10, mean): 70.000 h
- % AUCexp (200 mg QD, Day 10, median): 2.85%
- Accum Index (200 mg QD, Day 10, median): 1.61
- CLss/F (200 mg QD, Day 10, median): 20.35 L/h
- Cavg (200 mg QD, Day 10, median): 409.61 ng/mL
- Cmin (200 mg QD, Day 10, median): 73.80 ng/mL
- Fluct (200 mg QD, Day 10, median): 329.62%
- Tlast (200 mg QD, Day 10, median): 66.00 h
- % AUCexp (200 mg QD, Day 10, min): 1.77%
- AUC0-last (200 mg QD, Day 10, min): 6077 ng·h/mL
- AUC0-tau (200 mg QD, Day 10, min): 3134 ng·h/mL
- AUCinf (200 mg QD, Day 10, min): 6805 ng·h/mL
- Accum Index (200 mg QD, Day 10, min): 1.22
- CLss/F (200 mg QD, Day 10, min): 18.12 L/h
- Cavg (200 mg QD, Day 10, min): 130.57 ng/mL
- Cmax (200 mg QD, Day 10, min): 245.00 ng/mL
- Cmin (200 mg QD, Day 10, min): 52.20 ng/mL
- Fluct (200 mg QD, Day 10, min): 135.41%
- Tlast (200 mg QD, Day 10, min): 48.00 h
- t½ (200 mg QD, Day 10, min): 9.63 h
- AUC(0-t) [2]: 8170 ng·h/mL
- AUC [2]: 2800 ng·h/mL
- AUC(0-t) [3]: 6630 ng·h/mL
- AUC [3]: 3590 ng·h/mL
- Cmax (human, plasma, oral, 100 mg, 100 mg BID, Day 1, mean, read-out: Cmax): 730 ng/mL
- Tmax [3]: 2.25 h
- half-life [3]: 5.49 h
- AUC(0-t) [4]: 6640 ng·h/mL
- AUC [4]: 3690 ng·h/mL
- Cmax (human, plasma, oral, 100 mg, 100 mg BID, Day 1, median, read-out: Cmax): 809 ng/mL
- Tmax [4]: 2 h
- half-life [4]: 5.1 h
- AUC(0-inf) [5]: 9020 ng·h/mL
- AUC(0-t) [5]: 8810 ng·h/mL
- AUC [5]: 7000 ng·h/mL
- Cmax (human, plasma, oral, 100 mg, 100 mg BID, Day 10, individual subjects, read-out: Cmax): 1300 ng/mL
- Tmax [5]: 2 h
- AUC(0-inf) [6]: 7270 ng·h/mL
- AUC(0-t) [6]: 6950 ng·h/mL
- AUC [6]: 5440 ng·h/mL
- Cmax (human, plasma, oral, 100 mg, 100 mg BID, Day 10, mean, read-out: Cmax): 1020 ng/mL
- concentration at 10 day [6]: 146 ng/mL
- Tmax [6]: 1.75 h
- Vd/F [6]: 370 L
- half-life [6]: 11.8 h
- AUC(0-inf) [7]: 7310 ng·h/mL
- AUC(0-t) [7]: 7040 ng·h/mL
- AUC [7]: 5760 ng·h/mL
- Cmax (human, plasma, oral, 100 mg, 100 mg BID, Day 10, median, read-out: Cmax): 1060 ng/mL
- Tmax [7]: 2 h
- Vd/F [7]: 210 L
- half-life [7]: 8.2 h
- Tmax (human, plasma, oral, 200 mg, 200 mg QD, Day 1, individual subjects): 3 h
- AUC(0-t) [8]: 8060 ng·h/mL
- AUC [8]: 8060 ng·h/mL
- Cmax (human, plasma, oral, 200 mg, 200 mg QD, Day 1, mean, read-out: Cmax): 1350 ng/mL
- Tmax [8]: 3.17 h
- half-life [8]: 8.64 h
- AUC(0-t) [9]: 7790 ng·h/mL
- AUC [9]: 7790 ng·h/mL
- Cmax (human, plasma, oral, 200 mg, 200 mg QD, Day 1, median, read-out: Cmax): 1560 ng/mL
- Tmax [9]: 3 h
- half-life [9]: 7.7 h
- Tmax (human, plasma, oral, 200 mg, 200 mg QD, Day 10, individual subjects): 4 h
- AUC(0-inf) [10]: 11100 ng·h/mL
- AUC(0-t) [10]: 10600 ng·h/mL
- AUC [10]: 8850 ng·h/mL
- Cmax (human, plasma, oral, 200 mg, 200 mg QD, Day 10, mean, read-out: Cmax): 1270 ng/mL
- concentration at 10 day [10]: 73 ng/mL
- Tmax [10]: 3.33 h
- Vd/F [10]: 881 L
- half-life [10]: 20.5 h
- AUC(0-inf) [11]: 11400 ng·h/mL
- AUC(0-t) [11]: 11100 ng·h/mL
- AUC [11]: 9830 ng·h/mL
- Cmax (human, plasma, oral, 200 mg, 200 mg QD, Day 10, median, read-out: Cmax): 1440 ng/mL
- Tmax [11]: 3.5 h
- Vd/F [11]: 490 L
- half-life [11]: 17.1 h
SMILES: c1cnc(NCc2ccc(CNc3ncccn3)cc2)nc1 [Q-122]
- % AUCexp [1]: 2.32% and 3.36% and 2.33% and 7.19% and 10.70% and 1.77%
- AUC0-last [1]: 12003 ng·h/mL and 11557 ng·h/mL and 9531 ng·h/mL and 14024 ng·h/mL and 6077 ng·h/mL and 10643 ng·h/mL
- AUC0-tau [1]: 10424 ng·h/mL and 9904 ng·h/mL and 8868 ng·h/mL and 11036 ng·h/mL and 3134 ng·h/mL and 9758 ng·h/mL
- AUCinf [1]: 12287 ng·h/mL and 11959 ng·h/mL and 9759 ng·h/mL and 15111 ng·h/mL and 6805 ng·h/mL and 10834 ng·h/mL
- Accum Index [1]: 1.44 and 1.78 and 1.34 and 2.88 and 2.25 and 1.22
- CLss/F [1]: 19.19 L/h and 20.19 L/h and 22.55 L/h and 18.12 L/h and 63.82 L/h and 20.50 L/h
- Cavg [1]: 434.33 ng/mL and 412.65 ng/mL and 369.52 ng/mL and 459.84 ng/mL and 130.57 ng/mL and 406.57 ng/mL
- Cmax [1]: 1450.00 ng/mL and 1730.00 ng/mL and 1430.00 ng/mL and 1320.00 ng/mL and 245.00 ng/mL and 1470.00 ng/mL
- Cmin [1]: 74.10 ng/mL and 73.50 ng/mL and 52.20 ng/mL and 93.90 ng/mL and 68.20 ng/mL and 77.70 ng/mL
- Fluct [1]: 316.79% and 401.43% and 372.87% and 266.63% and 135.41% and 342.45%
- Tlast [1]: 60.00 h and 72.00 h and 48.00 h (2×) and 96.00 h (2×)
- t½ [1]: 13.99 h and 20.21 h and 12.03 h and 39.04 h and 28.35 h and 9.63 h
